Active and inactive are the calls of the source.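 Rule for the calls: active = inhibition of probe labeling in the gel above a set limit; inactive = inhibition at or below that limit.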
biological target: Prolyl endopeptidase-like (Mus musculus) (UniProt Q8C167); assay: mouse PREPL activity blockade, proteome background – biochemical, gel-based competitive ABPP, fluorescence, assay provider (AID 624480); details: mouse brain proteome spiked PREPL, FP-Rh gel ABPP; at 50 µM; active compounds read high
Sequence (Q8C167 whole entry, looked up): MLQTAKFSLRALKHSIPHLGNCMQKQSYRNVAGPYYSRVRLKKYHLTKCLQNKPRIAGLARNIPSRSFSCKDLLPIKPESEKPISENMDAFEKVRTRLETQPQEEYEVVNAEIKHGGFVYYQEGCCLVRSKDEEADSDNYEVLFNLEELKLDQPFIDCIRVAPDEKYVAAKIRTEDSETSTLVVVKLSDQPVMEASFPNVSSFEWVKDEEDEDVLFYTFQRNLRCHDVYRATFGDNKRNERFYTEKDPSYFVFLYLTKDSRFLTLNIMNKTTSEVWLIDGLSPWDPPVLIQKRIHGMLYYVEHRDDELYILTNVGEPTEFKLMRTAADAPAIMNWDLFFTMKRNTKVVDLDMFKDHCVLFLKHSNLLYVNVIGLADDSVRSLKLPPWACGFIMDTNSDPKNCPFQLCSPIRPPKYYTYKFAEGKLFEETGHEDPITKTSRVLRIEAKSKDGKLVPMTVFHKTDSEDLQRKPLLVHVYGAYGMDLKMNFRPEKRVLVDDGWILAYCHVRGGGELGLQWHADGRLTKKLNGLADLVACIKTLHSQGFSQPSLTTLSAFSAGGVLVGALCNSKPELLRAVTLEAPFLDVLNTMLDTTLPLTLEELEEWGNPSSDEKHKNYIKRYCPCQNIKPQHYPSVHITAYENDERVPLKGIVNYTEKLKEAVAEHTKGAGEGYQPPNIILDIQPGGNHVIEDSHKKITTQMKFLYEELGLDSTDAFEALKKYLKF

SMILES | inhibition
CC(C)Cc1[nH]c(=O)c(C#N)c2c1CCC2 | 70%
CCOc1ccc(CCNC(=O)c2ccc3c(=O)[nH]c4c(C(=O)NC(C)C)sc(=S)n4c3c2)cc1 | 25%
O=C(Nc1ccc2c(c1)OCCO2)c1cccc2nc3ccccc3nc12 | 15% (inactive)
COc1cc2nc(Nc3ccc(C)c(C)c3)nc(N)c2cc1OC | 17% (inactive)
N#Cc1c2c(c(-c3ccccc3)[nH]c1=O)CCCC2 | 41%

— PubChem BioAssay AID624480 (The Scripps Research Institute Molecular Screening Center, 2012)
